Columns and labels:
[1] = Chemisorption to aluminum hydroxide ("Alum") quantified by liquid chromatography-mass spectrometry; type: physicochemical
Description: Chemisorption was quantified by liquid chromatography-mass spectrometry. When appropriate ratios of the adjuvant and aluminum hydroxide are used, all of the adjuvant is bound to alum. This ensures delivery of the adjuvant to the draining lymph nodes, and minimizes systemic exposure. It is important not to exceed the ratio to avoid the presence of excess small molecule adjuvant. […] The ratio can range from 1:10 (mg Compound 1:mL aluminum hydroxide gel) to 10:1, or from 1:8 to 8:1, or 1:5 to 5:1; or 1:2 to 2:1, or about 1:1.
The Compound is chemisorbed onto aluminum hydroxide to form an adjuvant complex referred to herein as (“Alhydroxiquim-II”). The trihydroxybenzyl appendage of the adjuvant Compound 1 ligand-exchanges with the hydroxyl groups of aluminum hydroxide (chemisorption). When appropriate ratios of the adjuvant and aluminum hydroxide are used, all of the adjuvant is bound to alum. This ensures delivery of the adjuvant to the draining lymph nodes, and minimizes systemic exposure. It is important not to exceed the ratio to avoid the presence of excess small molecule adjuvant.
Chemisorption was quantified by liquid chromatography-mass spectrometry.

[2] = human trials; cited from earlier work
[3] = 10 mg of the small-molecule to 10 mL of standard Alhydrogel (10 mg of aluminum content/mL)

Compound | binding to aluminum hydroxide gel (Alhydrogel) [1, 3] | concentrations of free small molecule [1, 3] | chemisorption to “Alum” ([1]; quantified by LC-MS, FIG. 2) | tolerability (systemic side effects including fever, headache, malaise, and myalgia) [2]
CCCCc1nc2c(N)nc3ccccc3c2n1Cc1cccc(CNC(=O)c2cc(O)c(O)c(O)c2)c1 [Compound 1, N-(3-((4-amino-2-butyl-1H-imidazo[4,5-c]quinolin-1-yl)methyl)benzyl)-3,4,5-trihydroxybenzamide] | complete binding | undetectable | saturable | 
CCOCc1nc2c(N)nc3ccccc3c2n1CC(C)(C)O [Resiquimod] |  |  |  | poorly tolerated

Source: patent US12564630B2, “Vaccine adjuvants” (priority 2020, dated 2026)
